Measured values taken from US20240174690A1, “ANNULATED 2-AMINO-3-CYANO THIOPHENES AND DERIVATIVES FOR THE TREATMENT OF CANCER” (BOEHRINGER INGELHEIM INTERNATIONAL GMBH, priority 2021, published 2024).

How the values were obtained:
[1] = test system: KRAS G12V-dependent Ba/F3 cells; experiment: Ba/F3 proliferation assay, KRAS G12V; format: cell-based; details: Mus musculus, BaF3, 72 h, AlamarBlue;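 further: proliferation IC50 in KRAS G12V-dependent Ba/F3 cells read by AlamarBlue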
Experimental: (§1) Plasmids containing KRASG12 mutants (i.e. […], G12C, G12V) are obtained from GeneScript. To generate KRASG12-dependent Ba/F3 models, Ba/F3 cells are transduced with retroviruses containing vectors that harbor KRASG12 isoforms. Platinum-E cells (Cell Biolabs) are used for retrovirus packaging. Retrovirus is added to Ba/F3 cells. To ensure infection, 4 μg/mL polybrene is added and cells are spinfected. […] Cells with an infection efficiency of 10% to 20% are further cultivated and puromycin selection with 1 μg/mL is initiated. As a control, parental Ba/F3 cells are used to show selection status. Selection is considered successful when parental Ba/F3 cells cultures died. To evaluate the transforming potential of KRASG12 mutations, the growth medium is no longer supplemented with IL-3. Ba/F3 cells harboring the empty vector are used as a control. Approximately ten days before conducting the experiments, puromycin is left out.
(§2) Compounds are added using an Access Labcyte Workstation with a Labcyte Echo 550 or 555 accoustic dispenser. All treatments are performed in technical duplicates. […] AlamarBlue™ (ThermoFisher), a viability stain, is added and fluorescence measured in the PerkinElmer Envision HTS Multilabel Reader. The raw data are imported into and analyzed with the Boehringer Ingelheim proprietary software MegaLab (curve fitting based on the program PRISM, GraphPad Inc.).

KRAS (G12D)::SOS1 = KRAS (G12D)::SOS1 (Homo sapiens (Human), UniProt P01116, G12D); experiment: KRAS::SOS1 AlphaScreen binding assay, KRAS G12D
From the text: (§3) This assay can be used to examine the potency with which compounds according to the invention binding to (mutated) KRAS inhibit the protein-protein interaction between SOS1 and (mutated) KRAS e.g., KRAS WT, KRAS G12C, KRAS G12D, KRAS G12V, KRAS G13D. […] Low IC50 values in this assay setting are indicative of strong inhibition of protein-protein interaction between SOS1 and KRAS:
(§4) These assays measure the inhibitory effect of compounds on KRAS mutant protein-protein interactions using the Alpha Screen technology by Perkin Elmer.
(§5) The following (mutant) enzyme forms of KRAS and interacting proteins are used in these assays at the given concentrations: • KRAS (G12D) 1-169, N-terminal 6His-tag, C-terminal avi-tag (Xtal BioStructures, Inc.); final assay concentration 10 nM and SOS1 564-1049, N-terminal 229 GST-tag, TEV cleavage site (Viva Biotech Ltd); final assay concentration 5 nM; • KRAS (G12C) 1-169, N-terminal 6His-tag for purification, cleaved off, C-terminal avi-tag, biotinylated, mutations: C51S, C80L, C118S (in house); final assay concentration 7.5 nM and SOS1 564-1049, N-terminal 229 GST-tag, TEV cleavage site (Viva Biotech Ltd); final assay concentration 5 nM; • KRAS (G12V) 1-169, N-terminal 6His-tag for purification, cleaved off, C-terminal avi-tag, biotinylated, TEV cleavage site, mutation: C118S, GDP loaded (in house); final assay concentration 10 nM and SOS1 564-1049, N-terminal 229 GST-tag, TEV cleavage site (Viva Biotech Ltd); final assay concentration 10 nM; • KRAS (G13D) 1-169, N-terminal 6His-tag for purification, cleaved off, C-terminal avi-tag, biotinylated, TEV cleavage site, mutation: C118S, GDP loaded (in house); final assay concentration 10 nM and SOS1 564-1049, N-terminal 229 GST-tag, TEV cleavage site (Viva Biotech Ltd); final assay concentration 10 nM; • KRAS (WT) 1-169, N-terminal 6His-tag for purification, cleaved off, C-terminal avi-tag, biotinylated, TEV cleavage site, mutation: C118S, GDP loaded (in house); final assay concentration 10 nM and SOS1 564-1049, N-terminal 229 GST-tag, TEV cleavage site (Viva Biotech Ltd); final assay concentration 10 nM.
(§6) Test compounds dissolved in DMSO are dispensed onto assay plates (Proxiplate 384 PLUS, white, PerkinElmer; 6008289) using an Access Labcyte Workstation with the Labcyte Echo 55×. For the chosen highest assay concentration of 100 μM, 150 nL of compound solution are transferred from a 10 mM DMSO compound stock solution. A series of eleven fivefold dilutions per compound are transferred to the assay plate, compound dilutions are tested in duplicates. DMSO are added as backfill to a total volume of 150 nL.
(§7) The assays run on a fully automated robotic system in a darkened room below 100 Lux. To 150 nl of compound dilution 10 μl of a mix including KRAS mutant protein, SOS1 (final assay concentrations see above) and GDP nucleotide (Sigma G7127; final assay concentration 10 μM) in assay buffer (1×PBS, 0.1% BSA, 0.05% Tween 20) are added into columns 1-24.
(§8) After 30 minutes incubation time 5 μl of Alpha Screen bead mix in assay buffer are added into columns 1-23. Bead mix consists of AlphaLISA Glutathione Acceptor Beads (PerkinElmer, Cat No AL109) and AlphaScreen Streptavidin Donor Beads (PerkinElmer Cat No 6760002) in assay buffer at a final assay concentration of 10 μg/ml each.
(§9) Plates are kept at room temperature in a darkened incubator. After an additional 60 minutes incubation time the signal is measured in a PerkinElmer Envision HTS Multilabel Reader using the AlphaScreen specs from PerkinElmer.
(§10) Each plate contains up to 16 wells of a negative control depending on the dilution procedure (platewise or serial) (DMSO instead of test compound; with KRAS mutant::SOS1 GDP mix and bead mix; column 23) and 16 wells of a positive control (DMSO instead of test compound; with KRAS mutant::SOS1 GDP mix w/o bead mix; column 24).
(§11) As internal control known inhibitors of KRAS mutant::SOS1 interaction can be measured on each compound plate. […]

[2] = test system: KRAS G12D-dependent Ba/F3 cells; experiment: Ba/F3 proliferation assay, KRAS G12D; format: cell-based; details: Mus musculus, BaF3, 72 h, AlamarBlue
Experimental: as §1, §2

KRAS (G12C)::SOS1 = KRAS (G12C)::SOS1 (Homo sapiens (Human), UniProt P01116, C118S/C51S/C80L/G12C); experiment: KRAS::SOS1 AlphaScreen binding assay, KRAS G12C
From the text: as §3, §4, §5, §6, §7, §8, §9, §10, §11

KRAS (G12C)::SOS1, sequence (P01116 other isoform, or with tags, fused parts or gaps G12C/C51S/C80L/C118S): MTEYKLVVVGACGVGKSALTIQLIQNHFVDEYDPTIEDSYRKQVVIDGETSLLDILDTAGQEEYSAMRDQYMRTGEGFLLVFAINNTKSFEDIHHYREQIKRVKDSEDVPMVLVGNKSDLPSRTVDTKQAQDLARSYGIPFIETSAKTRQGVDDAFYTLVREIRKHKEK
KRAS (G12D)::SOS1, sequence (P01116 other isoform, or with tags, fused parts or gaps G12D): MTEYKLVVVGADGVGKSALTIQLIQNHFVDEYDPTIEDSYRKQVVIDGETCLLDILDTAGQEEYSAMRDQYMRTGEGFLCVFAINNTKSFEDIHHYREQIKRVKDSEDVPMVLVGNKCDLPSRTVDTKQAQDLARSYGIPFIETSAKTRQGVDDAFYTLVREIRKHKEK

Row | SMILES | IC50 [1] | IC50 (KRAS (G12D)::SOS1) | IC50 [2] | IC50 (KRAS (G12C)::SOS1)
1 | C[C@H](Oc1cc(N2CCNC3(CC3)C2)nc(-c2onc3c2CCC[C@@]32CCCc3sc(N)c(C#N)c32)n1)[C@@H]1CCCN1C [I-5] | 253 nM | 1 nM | 3 nM | 2 nM
2 | C[C@H](Oc1cc(N2C[C@H](C)N[C@@H](C)C2)nc(-c2onc3c2CCC[C@@]32CCCc3sc(N)c(C#N)c32)n1)[C@@H]1CCCN1C [I-6] | 316 nM | 1 nM | 14 nM | 5 nM
3 | C[C@H]1CN(C)CCCN1c1cc(N2CCN(C)CC2)nc(-c2onc3c2CCC[C@@]32CCCc3sc(N)c(C#N)c32)n1 [I-7] | – | 3 nM | 190 nM | 23 nM
4 | C[C@H](Oc1cc(N2C[C@H](C)NC3(CC3)C2)nc(-c2onc3c2CCC[C@@]32CCCc3sc(N)c(C#N)c32)n1)[C@@H]1CCCN1C [I-8] | 258 nM | 1 nM | 4 nM | 4 nM
5 | C[C@H](Oc1cc(N2CCN3CCC3C2)nc(-c2onc3c2CCC[C@@]32CCCc3sc(N)c(C#N)c32)n1)[C@@H]1CCCN1C (stereo partly shown) [I-9] | 496 nM | 2 nM | 92 nM | 5 nM
6 | C[C@H](Oc1cc(N2CCNCC23CCOC3)nc(-c2onc3c2CCC[C@@]32CCCc3sc(N)c(C#N)c32)n1)[C@@H]1CCCN1C (stereo partly shown) [I-10] | 247 nM | 1 nM | 9 nM | 3 nM
7 | C[C@H](Oc1cc(N2CC[C@H](N(C)C)C2)nc(-c2onc3c2CCC[C@@]32CCCc3sc(N)c(C#N)c32)n1)[C@@H]1CCCN1C [I-11] | 416 nM | 1 nM | 24 nM | 7 nM
8 | C[C@H](Oc1cc(N2CC[C@H](N(C)C)C2)nc(-c2noc3c2CCC[C@@]32CCCc3sc(N)c(C#N)c32)n1)[C@@H]1CCCN1C [II-49] | 304 nM | 1 nM | 16 nM | 9 nM
9 | C[C@H](Oc1cc(N2CCNC[C@]23CCOC3)nc(-c2noc3c2CCC[C@@]32CCCc3sc(N)c(C#N)c32)n1)[C@@H]1CCCN1C [II-50] | 393 nM | 1 nM | 7 nM | 2 nM
10 | C[C@H](Oc1cc(N2CCNC[C@@]23CCOC3)nc(-c2noc3c2CCC[C@@]32CCCc3sc(N)c(C#N)c32)n1)[C@@H]1CCCN1C [II-51] | 693 nM | 1 nM | 37 nM | 4 nM
11 | C[C@H](Oc1cc(-n2cc3c(n2)CCNC3)nc(-c2noc3c2CCC[C@@]32CCCc3sc(N)c(C#N)c32)n1)[C@@H]1CCCN1C [II-53] | 285 nM | 1 nM | 57 nM | –
12 | C[C@H](Oc1cc(N2CCNC3(CC3)C2)nc(-c2noc3c2CCC[C@@]32CCCc3sc(N)c(C#N)c32)n1)[C@@H]1CCCN1C [II-54] | 157 nM | 1 nM | 1 nM | 2 nM
13 | C[C@H](Oc1cc(N2CCN(C)CC2)nc(-c2noc3c2CCC[C@@]32CCCc3sc(N)c(C#N)c32)n1)[C@@H]1CCCN1C [II-55] | 302 nM | 1 nM | 63 nM | 4 nM
14 | C[C@H](Oc1cc(N2C[C@H](C)N[C@@H](C)C2)nc(-c2noc3c2CCC[C@@]32CCCc3sc(N)c(C#N)c32)n1)[C@@H]1CCCN1C [II-56] | 166 nM | 1 nM | 20 nM | 2 nM
15 | C[C@H](Oc1cc(N2CCC[C@H](O)C2)nc(-c2noc3c2CCC[C@@]32CCCc3sc(N)c(C#N)c32)n1)[C@@H]1CCCN1C [II-57] | 45 nM | 2 nM | 40 nM | 2 nM
16 | CO[C@@H]1C[C@@H]([C@H](C)Oc2cc(-n3ccnc3)nc(-c3noc4c3CCC[C@@]43CCCc4sc(N)c(C#N)c43)n2)N(C)C1 [II-58] | 9 nM | 3 nM | 45 nM | 2 nM
17 | C[C@H](Oc1cc(N2CCC[C@@H](O)C2)nc(-c2noc3c2CCC[C@@]32CCCc3sc(N)c(C#N)c32)n1)[C@@H]1CCCN1C [II-59] | 31 nM | 2 nM | 35 nM | 2 nM
18 | C[C@H](Oc1cc(N2CCOC3(CC3)C2)nc(-c2noc3c2CCC[C@@]32CCCc3sc(N)c(C#N)c32)n1)[C@@H]1CCCN1C [II-61] | 38 nM | 3 nM | 55 nM | 2 nM
19 | CO[C@@H]1C[C@@H]([C@H](C)Oc2cc(-c3cnn(C)n3)nc(-c3noc4c3CCC[C@@]43CCCc4sc(N)c(C#N)c43)n2)N(C)C1 [II-62] | 17 nM | 7 nM | 39 nM | 3 nM
20 | C[C@H](Oc1cc(N2Cc3cnn(C)c3C2)nc(-c2noc3c2CCC[C@@]32CCCc3sc(N)c(C#N)c32)n1)[C@@H]1CCCN1C [II-63] | 49 nM | 12 nM | 266 nM | 3 nM
21 | C[C@H](Oc1cc(N2CCNC2=O)nc(-c2noc3c2CCC[C@@]32CCCc3sc(N)c(C#N)c32)n1)[C@@H]1CCCN1C [II-64] | 5 nM | 1 nM | 11 nM | 2 nM
22 | C[C@H](Oc1cc(-n2cnc3cccnc32)nc(-c2noc3c2CCC[C@@]32CCCc3sc(N)c(C#N)c32)n1)[C@@H]1CCCN1C [II-65] | 40 nM | 9 nM | 122 nM | 4 nM
23 | C[C@H](Oc1cc(N2CC[C@@H](O)C2)nc(-c2noc3c2CCC[C@@]32CCCc3sc(N)c(C#N)c32)n1)[C@@H]1CCCN1C [II-66] | 29 nM | 1 nM | 71 nM | 2 nM
24 | C[C@H](Oc1cc(C2=CCOCC2)nc(-c2noc3c2CCC[C@@]32CCCc3sc(N)c(C#N)c32)n1)[C@@H]1CCCN1C [II-67] | 15 nM | 3 nM | 38 nM | 2 nM
25 | Cc1nc(-c2cc(O[C@@H](C)[C@@H]3CCCN3C)nc(-c3noc4c3CCC[C@@]43CCCc4sc(N)c(C#N)c43)n2)cs1 [II-103] | – | 2 nM | 21 nM | 2 nM
